Test system: anti-OVA IgG antibody response (chicken ovalbumin (OVA) as model antigen)
Test: In vivo experiment 1: adjuvant activity, anti-OVA IgG antibody production (ELISA of mouse sera)
Design: species or system C75BL6 mice
Settings: toxin-free OVA 20 μg + adjuvant 50 μg, three bi-weekly subcutaneous injections, endpoint sera day 42; compared with OVA alone and OVA + prior art compound 13
Method: Total IgG values were calculated using chicken ovalbumin (OVA) as a model antigen for four groups of mice treated with the following subcutaneous injections: i) toxin-free OVA antigen (20 μg) in combination with the known QA-based adjuvant 13 (50 μg) (identified as QA+OVA), ii) toxin-free OVA antigen (20 μg) in combination with the new adjuvant 25 (50 μg) (identified as QA(oxime)+OVA), iii) toxin-free OVA (20 μg) alone as no-adjuvant control group (identified as OVA) and iv) PBS only as negative control (identified as PBS).
Quantification of antibody production. Antibody titers against OVA protein, or against MUC1 and TnMUC1 peptides in the case of the self-adjuvanting vaccine constructs. were measured by an indirect enzyme-linked immunosorbent assay (ELISA). […] Absorbance (OD, 450 nm) was immediately measured using a BioTek® Synergy HT multi-detection microplate reader.
A straightforward proof-of-principle in vivo experiment was carried out to directly compare the adjuvant activities of prior art compound 13 and the compound of the invention 25 in terms of IgG antibody production, using chicken ovalbumin (OVA) as a model antigen. […] Endpoint sera after three immunizations were probed via ELISA assays by coating 96-well plates with toxin-free OVA (0.5 μg/ml) and total IgG optical density (OD) values (day 42) were calculated (FIG. 4).

SMILES: C[C@H]1O[C@@H](OC2C(OC(=O)[C@]34CCC(C)(C)CC3C3=CCC5C6(C)CC[C@H](O)C(C)(C=NO)[C@@H]6CC[C@@]5(C)[C@]3(C)C[C@@H]4O)O[C@H](CO)[C@H](NC(=O)CCCCCCCCCCC(=O)O)C2O)C(O)C(O)[C@H]1O[C@@H]1OC[C@@H](O)C(O)C1O (stereo partly shown) [Compound 25]
- anti-OVA IgG antibody response (total IgG optical density values): significantly higher

From patent US20250092085A1, “SAPONIN-BASED ADJUVANTS AND VACCINES” (ASOCIACIÓN CENTRO DE INVESTIGACIÓN COOPERATIVA EN …, priority 2021, published 2025)
